SMILES strings stand for the structures. Several values for one entry are separate records, joined by “and”; a condition that tells them apart may be missing. Equal values may be shown once. Read-outs that look alike come from different tables or passages of the source.

Consider nine molecules from paper PMC9032381 (Diagnostics, 2022).

The mark [1] stands for this setting: measured, listed as 18F-Afatinib.

For the molecule `C=CC(=O)Nc1cc(Nc2nccc(-c3cn(C)c4ccccc34)n2)c(OC)cc1N(C)CCNC` [AZ7550], under “cited”, the Active metabolite exposure amounted to 10 % AUC and the “Active metabolite potency relative to osimertinib (OSI)” value is on record as “as OSI”.
In the case of `C=CC(=O)Nc1cc(Nc2nccc(-c3cn([11CH3])c4ccccc34)n2)c(OC)cc1N(C)CCN(C)C` [^11C-osimertinib], where the note is “measured”, the “parent fraction, initial decline (drop to)” value was determined as 50% and the “parent fraction, plateau” value is 28–29%.
Consider `C#Cc1cccc(Nc2ncnc3cc(OCCOC)c(OCCO)cc23)c1` [OSI-420], for which the Active metabolite exposure (cited) was 10 % AUC.
Take `C=CC(=O)Nc1cc(Nc2nccc(-c3cn(C)c4ccccc34)n2)c(OC)cc1N(C)CCN(C)C` [Osimertinib, reference compound]: for the setting “cited”, the AUC dose normalized amounted to 75 µM·h; the “Cmin at Css” value amounted to 417 nM; the “Metabolism Liver” value is listed as about 99%; the “Renal extraction, unchanged” value was 2%. Further, where the note is “cited”, the Strength of basicity entry was “Strong”, the “Target Ctrough” value came out at 332 nM and the “Time to Css” value is listed as 15 days.
For `CN(C)C/C=C/C(=O)Nc1cc2c(Nc3ccc(F)c(Cl)c3)ncnc2cc1O[C@H]1CCOC1` [Afatinib, reference compound], under “cited”, the AUC dose normalized was 23 µM·h, the Active metabolites result was “None”, the Ka stood at 0.252 h⁻¹ and the Strength of basicity entry was “Strong”. Besides, under “cited”, the “Target Ctrough” value was 50 nM and the “Time to Css” value was 8 days.
For the molecule `C#Cc1cccc(Nc2ncnc3cc(OCCO)c(OCCOC)cc23)c1` [OSI413], the Active metabolite exposure (cited) was 10 % AUC.
For `CN(C)C/C=C/C(=O)Nc1cc2c(Nc3ccc([18F])c(Cl)c3)ncnc2cc1OC1CCOC1` (stereo not drawn) [^18F-afatinib], where the note is “measured”, the “SUV Aorta (blood SUV)” value was 0.5 (±0.1), the “SUV Brain” value is on record as 0.04 (0.01), the “SUV Kidney” value is given as 3.5 (0.7) and the “SUV Liver” value is 11.8 (2.2). Under “measured”, the “SUV Lung” value is listed as 1.3 (0.5); the “SUV Spleen” value is 6.8 (1.0); the “SUV Vertebra” value is on record as 2.4 (0.8); the “SUV-AUC Liver” value was 731.5 (87.4) MBq/mL and seconds. In addition, for the setting “measured”, the “SUV-AUC Lung” value is 98.5 (16.5) MBq/mL and seconds; the “TBR Brain” value was 0.08 (0.03); the “TBR Kidney” value is given as 6.9 (1.8); the “TBR Liver” value was 23.3 (6.2). Also, where the note is “measured”, the “TBR Lung” value is given as 2.5 (1.2); the “TBR Spleen” value is recorded as 13.2 (2.3); the “TBR Vertebra” value is 4.8 (2.0); the “TBR-AUC Liver” value is 747.7 (426.3) TBR and seconds. In addition, under “measured”, the “TBR-AUC Lung” value is 90.9 (37.9) TBR and seconds; the parent fraction was 70% and 35%. Further, under setting [1], the “SUV Aorta (blood SUV)” value was 0.5 (0.1); the “SUV Tumor” value was 1.8 (1.3) and 1.6 (0.1); the “TBR Tumor” value is 3.6 (2.4) and 3.3 (1.0); the “TBR-AUC Tumor” value was 150.7 (9.1) TBR and seconds and 113.0 (44.8) TBR.
In the case of `C=CC(=O)Nc1cc(Nc2nccc(-c3c[nH]c4ccccc34)n2)c(OC)cc1N(C)CCN(C)C` [AZ5104], where the note is “cited”, the Active metabolite exposure is reported as 10 % AUC and the “Active metabolite potency relative to osimertinib (OSI)” value is “higher”.
`C#Cc1cccc(Nc2ncnc3cc(OCCOC)c(OCCOC)cc23)c1` [Erlotinib, reference compound]: where the note is “cited”, the AUC dose normalized worked out at 207 µM·h, the “Cmin at Css” value was found to be 2567 nM, the Ka stood at 0.949 h⁻¹ and the “Metabolism Liver” value is listed as about 98%. For the same molecule, where the note is “cited”, the “Renal extraction, unchanged” value is given as under 2%; the Strength of basicity entry is on record as “Weak”; the “Target Ctrough” value was 1271 nM; the “Time to Css” value was 7 to 8 days.
